Results from patent US20240150293A1, “SPIROCYCLOHEXANE DERIVATIVES, PHARMACEUTICAL COMPOSITIONS CONTAINING THEM AND THEIR USES AS ANTI-APOPTOTIC INHIBITORS” (LES LABORATOIRES SERVIER, priority 2021, published 2024).

Legend:
[1] = tested on: H929 multiple myeloma tumor line; assay: In vitro cytotoxicity, MTT assay (Example B, Method A); type: cell-based; conditions: Homo sapiens, NCI-H929, 48 h, H929 cells, 48 hours exposure, read-out: C50
Procedure: The cytotoxicity studies were carried out on the H929 multiple myeloma tumor line.
The cells are distributed onto microplates and exposed to the test compounds for 48 hours. The cell viability is then quantified by a colorimetric assay, the Microculture Tetrazolium Assay (Carmichael et al, Cancer Res. 1987, 47, 939-942).
The results are expressed in C50 which means concentration corresponding to […] of effect/inhibition.

[2] = molecular target: Cy5-labelled Mcl1 (amino acids 171-321) C286S protein (UniProtKB Q07820) (Homo sapiens (Human), UniProt Q07820, C286S); assay: Inhibition of Mcl-1 by the fluorescence quenching assay (Example A, Method B); type: binding
Sequence of Cy5-labelled Mcl1 (amino acids 171-321) C286S protein (Q07820 171-321 C286S): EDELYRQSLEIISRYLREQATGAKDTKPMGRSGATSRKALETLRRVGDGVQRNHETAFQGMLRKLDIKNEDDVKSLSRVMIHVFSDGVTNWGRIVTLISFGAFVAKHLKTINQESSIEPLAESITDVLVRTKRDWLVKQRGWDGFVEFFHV
In short: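 Cy5-labelled Mcl1 171-321 C286S (1 nM) quenched by TQ5WS-labelled PUMA peptide (10, 20 or 400 nM); displacement raises fluorescence (Ex 620/Em 680 nm). Buffer 10 mM HEPES, 150 mM NaCl, 0.05% Tween 20, pH 7.4, 5% DMSO; 2 h at room temperature, 11-point curves, IC50 converted to Ki (cKi/eKi).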

| Ki [2] [nM] | inhibition at 10 µM ([2]; @ 10 μM, read-out: Mcl-1 inhibition, % at a single concentration) [%] | Compound | IC50 [1] [nM] |
| --- | --- | --- | --- |
| 65.6 | – | C[C@@H](COc1ccnc2c1[C@@H](C(F)(F)F)CCC2)C[C@H]1Cc2ccccc2[C@]12CC[C@@](Nc1cccc(Cl)c1)(C(=O)O)CC2 [Example 698, (1r,2′S,4S)-4-(3-chloroanilino)-2′-[(2R)-2-methyl-3-{[(5S)-5-(trifluoromethyl)-5,6,7,8-tetrahydroquinolin-4-yl]oxy}propyl]-2′,3′-dihydrospiro[cyclohexane-1,1′-indene]-4-carboxylic acid] | 5430 |
| 1.15 | – | C[C@@H](COc1ccnc2c1[C@H](C(F)(F)F)CCC2)C[C@H]1Cc2ccccc2[C@]12CC[C@@](Nc1cccc(Cl)c1)(C(=O)O)CC2 [Example 699, (1r,2′S,4S)-4-(3-chloroanilino)-2′-[(2R)-2-methyl-3-{[(5R)-5-(trifluoromethyl)-5,6,7,8-tetrahydroquinolin-4-yl]oxy}propyl]-2′,3′-dihydrospiro[cyclohexane-1,1′-indene]-4-carboxylic acid] | 115 |
| 5.09 | – | C[C@@H](COc1ccnc2c1[C@H](C)C(F)(F)CC2)C[C@H]1Cc2ccccc2[C@]12CC[C@@](Nc1cccc(Cl)c1)(C(=O)O)CC2 [Example 700, (1r,2′S,4S)-4-(3-chloroanilino)-2′-[(2R)-3-{[(5S)-6,6-difluoro-5-methyl-5,6,7,8-tetrahydroquinolin-4-yl]oxy}-2-methylpropyl]-2′,3′-dihydrospiro[cyclohexane-1,1′-indene]-4-carboxylic acid] | 330 |
| 28.5 | – | C[C@@H](COc1ccnc2c1[C@@H](C)C(F)(F)CC2)C[C@H]1Cc2ccccc2[C@]12CC[C@@](Nc1cccc(Cl)c1)(C(=O)O)CC2 [Example 701, (1r,2′S,4S)-4-(3-chloroanilino)-2′-[(2R)-3-{[(5R)-6,6-difluoro-5-methyl-5,6,7,8-tetrahydroquinolin-4-yl]oxy}-2-methylpropyl]-2′,3′-dihydrospiro[cyclohexane-1,1′-indene]-4-carboxylic acid] | 1560 |
| 0.194 | – | C[C@@H](COc1ccnc2c1[C@H](C)CCC2)C[C@H]1Cc2ccccc2[C@]12CC[C@@](Nc1ccc(F)c(Cl)c1)(C(=O)O)CC2 [Example 702, (1r,2′S,4S)-4-(3-chloro-4-fluoroanilino)-2′-[(2R)-2-methyl-3-{[(5R)-5-methyl-5,6,7,8-tetrahydroquinolin-4-yl]oxy}propyl]-2′,3′-dihydrospiro[cyclohexane-1,1′-indene]-4-carboxylic acid] | 41.5 |
| 1.27 | – | C[C@@H](COc1ccnc2c1[C@H](C)CCC2)C[C@@H]1Cc2ccccc2[C@]12CC[C@@](Nc1ccc(F)c(Cl)c1)(C(=O)O)CC2 [Example 703, (1r,2′R,4R)-4-(3-chloro-4-fluoroanilino)-2′-[(2R)-2-methyl-3-{[(5R)-5-methyl-5,6,7,8-tetrahydroquinolin-4-yl]oxy}propyl]-2′,3′-dihydrospiro[cyclohexane-1,1′-indene]-4-carboxylic acid] | 169 |
| 1.49 | – | C[C@@H](COc1ccnc2c1[C@H](C)CCC2)C[C@H]1Cc2ccccc2[C@]12CC[C@@](Nc1cc(F)cc(Cl)c1)(C(=O)O)CC2 [Example 704, (1r,2′S,4S)-4-(3-chloro-5-fluoroanilino)-2′-[(2R)-2-methyl-3-{[(5R)-5-methyl-5,6,7,8-tetrahydroquinolin-4-yl]oxy}propyl]-2′,3′-dihydrospiro[cyclohexane-1,1′-indene]-4-carboxylic acid] | 240 |
| 27.7 | – | C[C@@H](COc1ccnc2c1[C@H](C)CCC2)C[C@H]1Cc2ccccc2[C@]12CC[C@@](Nc1cc(Cl)ccc1F)(C(=O)O)CC2 [Example 705, (1r,2′S,4S)-4-(5-chloro-2-fluoroanilino)-2′-[(2R)-2-methyl-3-{[(5R)-5-methyl-5,6,7,8-tetrahydroquinolin-4-yl]oxy}propyl]-2′,3′-dihydrospiro[cyclohexane-1,1′-indene]-4-carboxylic acid] | 2750 |
| 0.901 | – | C[C@@H](COc1ccnc2c1[C@H](C)CCC2)C[C@H]1Cc2ccccc2[C@]12CC[C@@](Nc1cccc(Cl)c1F)(C(=O)O)CC2 [Example 706, (1r,2′S,4S)-4-(3-chloro-2-fluoroanilino)-2′-[(2R)-2-methyl-3-{[(5R)-5-methyl-5,6,7,8-tetrahydroquinolin-4-yl]oxy}propyl]-2′,3′-dihydrospiro[cyclohexane-1,1′-indene]-4-carboxylic acid] | 93.9 |
| 6.4 | – | Cc1ccc(N[C@]2(C(=O)O)CC[C@]3(CC2)c2ccccc2C[C@@H]3C[C@@H](C)COc2ccnc3c2[C@H](C)CCC3)cc1Cl [Example 709, (1r,2′S,4S)-4-(3-chloro-4-methylanilino)-2′-[(2R)-2-methyl-3-{[(5R)-5-methyl-5,6,7,8-tetrahydroquinolin-4-yl]oxy}propyl]-2′,3′-dihydrospiro[cyclohexane-1,1′-indene]-4-carboxylic acid] | 1010 |
| 44.1 | – | Cc1cc(Cl)cc(N[C@]2(C(=O)O)CC[C@]3(CC2)c2ccccc2C[C@@H]3C[C@@H](C)COc2ccnc3c2[C@H](C)CCC3)c1 [Example 710, (1r,2′S,4S)-4-(3-chloro-5-methylanilino)-2′-[(2R)-2-methyl-3-{[(5R)-5-methyl-5,6,7,8-tetrahydroquinolin-4-yl]oxy}propyl]-2′,3′-dihydrospiro[cyclohexane-1,1′-indene]-4-carboxylic acid] | 3280 |
| 0.446 | – | C[C@@H](COc1ccnc2c1[C@H](C)CCC2)C[C@H]1Cc2ccccc2[C@]12CC[C@@](Nc1cccc(Br)c1)(C(=O)O)CC2 [Example 711, (1r,2′S,4S)-4-(3-bromoanilino)-2′-[(2R)-2-methyl-3-{[(5R)-5-methyl-5,6,7,8-tetrahydroquinolin-4-yl]oxy}propyl]-2′,3′-dihydrospiro[cyclohexane-1,1′-indene]-4-carboxylic acid] | 59.8 |
| 0.439 | – | C[C@@H](COc1ccnc2c1[C@H](C)CCC2)C[C@H]1Cc2ccccc2[C@]12CC[C@@](Nc1ccc(F)c(Br)c1)(C(=O)O)CC2 [Example 712, (1r,2′S,4S)-4-(3-bromo-4-fluoroanilino)-2′-[(2R)-2-methyl-3-{[(5R)-5-methyl-5,6,7,8-tetrahydroquinolin-4-yl]oxy}propyl]-2′,3′-dihydrospiro[cyclohexane-1,1′-indene]-4-carboxylic acid] | 74 |
| 3.23 | – | C[C@@H](COc1ccnc2c1[C@H](C)CCC2)C[C@H]1Cc2ccccc2[C@]12CC[C@](C(=O)O)(N1CCc3c(Cl)cccc31)CC2 [Example 713, (1r,2′S,4S)-4-(4-chloro-2,3-dihydro-1H-indol-1-yl)-2′-[(2R)-2-methyl-3-{[(5R)-5-methyl-5,6,7,8-tetrahydroquinolin-4-yl]oxy}propyl]-2′,3′-dihydrospiro[cyclohexane-1,1′-indene]-4-carboxylic acid] | 152 |
| 4.75 | – | C[C@@H](COc1ccnc2c1[C@H](C)CCC2)C[C@H]1Cc2ccccc2[C@]12CC[C@@](Nc1ccnc(Cl)c1)(C(=O)O)CC2 [Example 714, (1r,2′S,4S)-4-[(2-chloropyridin-4-yl)amino]-2′-[(2R)-2-methyl-3-{[(5R)-5-methyl-5,6,7,8-tetrahydroquinolin-4-yl]oxy}propyl]-2′,3′-dihydrospiro[cyclohexane-1,1′-indene]-4-carboxylic acid] | 1260 |
| 4.71 | – | C[C@@H](COc1ccnc2c1[C@H](C)CCC2)C[C@H]1Cc2ccccc2[C@]12CC[C@@](Nc1cccc(C#N)c1)(C(=O)O)CC2 [Example 716, (1r,2′S,4S)-4-(3-cyanoanilino)-2′-[(2R)-2-methyl-3-{[(5R)-5-methyl-5,6,7,8-tetrahydroquinolin-4-yl]oxy}propyl]-2′,3′-dihydrospiro[cyclohexane-1,1′-indene]-4-carboxylic acid] | 311 |
| – | 14.8 | C[C@@H](COc1ccnc2c1[C@H](C)CCC2)C[C@H]1Cc2ccccc2[C@]12CC[C@@](Sc1cccc(Cl)c1)(C(=O)O)CC2 [Example 718, (1r,2′S,4S)-4-[(3-chlorophenyl)sulfanyl]-2′-[(2R)-2-methyl-3-{[(5R)-5-methyl-5,6,7,8-tetrahydroquinolin-4-yl]oxy}propyl]-2′,3′-dihydrospiro[cyclohexane-1,1′-indene]-4-carboxylic acid] | 15900 |
| 1450 | – | C[C@@H](COc1ccnc2c1[C@@H](C)CCC2)C[C@H]1Cc2ccccc2[C@]12CC[C@@](Cc1cccc(Cl)c1)(C(=O)O)CC2 [Example 719, (1s,2′S,4R)-4-[(3-chlorophenyl)methyl]-2′-[(2R)-2-methyl-3-{[(5S)-5-methyl-5,6,7,8-tetrahydroquinolin-4-yl]oxy}propyl]-2′,3′-dihydrospiro[cyclohexane-1,1′-indene]-4-carboxylic acid] | 13200 |
| 2.12 | – | CC(O)c1ccc2c(c1)[C@]1(CC[C@@](Nc3cccc(Cl)c3)(C(=O)O)CC1)[C@H](C[C@@H](C)COc1ccnc3ccsc13)C2 (stereo partly drawn) [Example 721, (1r,2′R,4R)-4-(3-chloroanilino)-6′-(1-hydroxyethyl)-2′-{(2R)-2-methyl-3-[(thieno[3,2-b]pyridin-7-yl)oxy]propyl}-2′,3′-dihydrospiro[cyclohexane-1,1′-indene]-4-carboxylic acid] | 670 |
